Measured values as given in PMC9403976, “Elucidating the path to Plasmodium prolyl-tRNA synthetase inhibitors that overcome halofuginone resistance” (Nature Communications, 2022).
Values joined by “and” are separate entries in the source; they are usually repeats but may differ in a detail not shown here. Identical values can stand only once. Like-named read-outs stand apart in the source and are kept apart here.

Key:
P. falciparum Dd2-2D4 = experiment: P. falciparum asexual blood stage (ABS) growth assay, SYBR Green, 72 h, wild-type parasites; type: cell-based, Plasmodium falciparum; settings: for parasite growth, replicate wells (Fig 1b): Dd2-2D4
[1] = system: halofuginone-induced P. falciparum (elevated proline homeostasis); experiment: P. falciparum ABS growth assay, SYBR Green, 72 h, halofuginone-induced parasites; type: cell-based, Plasmodium falciparum; settings: for parasite growth, replicate wells (Fig 1b): Halofuginone-Induced
In short: (§1)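 Asexual blood-stage Dd2 parasites, 1% parasitemia/1% hematocrit, RPMI + 0.5% Albumax; triplicate dose-response, 72 h. Readout SYBR Green 1 fluorescence. Controls: 10 μM dihydroartemisinin (kill), no compound (growth). EC50 values determined.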

[2] = system: HFGR-I P. falciparum (elevated proline homeostasis and PfcProRS^L482H); experiment: P. falciparum ABS growth assay, SYBR Green, 72 h, HFGR-I parasites; type: cell-based, Plasmodium falciparum; settings: HFGR-I
In short: as §1

PfcProRS = target: T1, PfcProRS (Plasmodium falciparum, UniProt Q8I5R7); type: binding; settings: single replicates
T1 construct: made in house; host or cells: E. coli SoluBL-21
T1 sequence (Q8I5R7 249-746): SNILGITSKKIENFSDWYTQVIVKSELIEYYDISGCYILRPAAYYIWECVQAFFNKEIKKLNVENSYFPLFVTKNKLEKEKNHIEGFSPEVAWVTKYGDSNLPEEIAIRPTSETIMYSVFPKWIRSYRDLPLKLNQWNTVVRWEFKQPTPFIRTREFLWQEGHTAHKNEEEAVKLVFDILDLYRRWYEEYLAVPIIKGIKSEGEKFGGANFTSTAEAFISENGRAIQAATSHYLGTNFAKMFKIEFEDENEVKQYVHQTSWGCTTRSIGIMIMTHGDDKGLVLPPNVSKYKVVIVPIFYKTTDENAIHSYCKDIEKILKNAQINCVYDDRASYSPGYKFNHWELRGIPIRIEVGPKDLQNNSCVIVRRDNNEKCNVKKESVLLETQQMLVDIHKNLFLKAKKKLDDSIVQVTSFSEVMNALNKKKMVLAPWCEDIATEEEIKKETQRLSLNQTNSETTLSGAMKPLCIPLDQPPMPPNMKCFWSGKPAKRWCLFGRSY

## O=C(NC1Cc2ccccc2C1)c1nccnc1NC(=O)C1CCCCC1 [compound 2, reference compound]
P. falciparum Dd2-2D4; Log[inhibitor] (M) -5.000
  parasite growth, replicate wells (Fig 1b): 1.00E+00 (2×) and 0.00E+00
P. falciparum Dd2-2D4; Log[inhibitor] (M) -5.301
  parasite growth, replicate wells (Fig 1b): 0.00E+00 (2×) and -2.00E+00
P. falciparum Dd2-2D4; Log[inhibitor] (M) -5.602
  parasite growth, replicate wells (Fig 1b): 1.00E+00 and -1.00E+00 and 2.00E+00
P. falciparum Dd2-2D4; Log[inhibitor] (M) -5.903
  parasite growth, replicate wells (Fig 1b): 1.70E+01 and 1.20E+01 and 1.60E+01
P. falciparum Dd2-2D4; Log[inhibitor] (M) -6.204
  parasite growth, replicate wells (Fig 1b): 4.80E+01 (2×) and 4.40E+01
P. falciparum Dd2-2D4; Log[inhibitor] (M) -6.505
  parasite growth, replicate wells (Fig 1b): 8.30E+01 (2×) and 8.20E+01
P. falciparum Dd2-2D4; Log[inhibitor] (M) -6.806
  parasite growth, replicate wells (Fig 1b): 1.04E+02 and 1.00E+02 and 1.01E+02
P. falciparum Dd2-2D4; Log[inhibitor] (M) -7.107
  parasite growth, replicate wells (Fig 1b): 8.30E+01 and 8.10E+01 and 8.20E+01
P. falciparum Dd2-2D4; Log[inhibitor] (M) -7.408
  parasite growth, replicate wells (Fig 1b): 8.20E+01 and 7.90E+01 and 8.10E+01
P. falciparum Dd2-2D4; Log[inhibitor] (M) -7.709
  parasite growth, replicate wells (Fig 1b): 9.90E+01 and 8.20E+01 and 1.00E+02
P. falciparum Dd2-2D4; Log[inhibitor] (M) -8.010
  parasite growth, replicate wells (Fig 1b): 9.50E+01 and 1.05E+02 and 1.00E+02
P. falciparum Dd2-2D4; Log[inhibitor] (M) -8.311
  parasite growth, replicate wells (Fig 1b): 8.90E+01 and 1.00E+02 and 9.90E+01
P. falciparum Dd2-2D4; Plasmodium falciparum, DD2, SI Fig 16b, values on -log scale, read-out: ABS - Dd2-2D4 (converted)
  EC50: 596 nM
[1]; Log[inhibitor] (M) -5.000
  parasite growth, replicate wells (Fig 1b): 1.00E+00
  dose-response value, Replicates 1-3 (SI Fig 2e): 1.0
[1]; Log[inhibitor] (M) -5.408
  parasite growth, replicate wells (Fig 1b): 2.00E+00
  dose-response value, Replicates 1-3 (SI Fig 2e): 2.0
[1]; Log[inhibitor] (M) -5.816
  parasite growth, replicate wells (Fig 1b): 2.40E+01 (2×) and 2.50E+01
[1]; Log[inhibitor] (M) -6.222
  parasite growth, replicate wells (Fig 1b): 9.70E+01 and 1.00E+02 and 9.90E+01
[1]; Log[inhibitor] (M) -6.638
  parasite growth, replicate wells (Fig 1b): 1.00E+02 and 1.02E+02 and 1.04E+02
[1]; Log[inhibitor] (M) -7.046
  parasite growth, replicate wells (Fig 1b): 1.00E+02 and 9.10E+01 and 1.03E+02
[1]; Log[inhibitor] (M) -7.450
  parasite growth, replicate wells (Fig 1b): 9.40E+01 and 9.70E+01 and 9.80E+01
[1]; Log[inhibitor] (M) -7.854
  parasite growth, replicate wells (Fig 1b): 9.70E+01 (2×) and 1.00E+02
[1]; Log[inhibitor] (M) -8.260
  parasite growth, replicate wells (Fig 1b): 1.00E+02 and 9.20E+01 and 9.80E+01
[1]; Log[inhibitor] (M) -8.699
  parasite growth, replicate wells (Fig 1b): 9.70E+01 (2×) and 9.80E+01
[1]; Log[inhibitor] (M) -9.000
  parasite growth, replicate wells (Fig 1b): 1.00E+02 and 9.60E+01 and 9.80E+01
[1]; Log[inhibitor] (M) -9.488
  parasite growth, replicate wells (Fig 1b): 9.80E+01 (2×) and 9.90E+01
[2]; Log[inhibitor] (M) -5.000
  parasite growth, replicate wells (Fig 1b): 6.00E+00 (2×) and 7.00E+00
[2]; Log[inhibitor] (M) -5.408
  parasite growth, replicate wells (Fig 1b): 7.00E+00 (2×) and 8.00E+00
[2]; Log[inhibitor] (M) -5.816
  parasite growth, replicate wells (Fig 1b): 1.20E+01 (2×) and 1.40E+01
[2]; Log[inhibitor] (M) -6.222
  parasite growth, replicate wells (Fig 1b): 6.90E+01 (2×) and 7.10E+01
[2]; Log[inhibitor] (M) -6.638
  parasite growth, replicate wells (Fig 1b): 8.90E+01 and 9.90E+01 and 9.60E+01
[2]; Log[inhibitor] (M) -7.046
  parasite growth, replicate wells (Fig 1b): 9.70E+01 and 1.01E+02 (2×)
[2]; Log[inhibitor] (M) -7.450
  parasite growth, replicate wells (Fig 1b): 8.80E+01 and 9.60E+01 and 1.00E+02
[2]; Log[inhibitor] (M) -7.854
  parasite growth, replicate wells (Fig 1b): 1.06E+02 and 1.07E+02 and 9.90E+01
[2]; Log[inhibitor] (M) -8.260
  parasite growth, replicate wells (Fig 1b): 1.03E+02 and 9.80E+01 and 1.01E+02
[2]; Log[inhibitor] (M) -8.699
  parasite growth, replicate wells (Fig 1b): 9.70E+01 (2×) and 9.90E+01
[2]; Log[inhibitor] (M) -9.000
  parasite growth, replicate wells (Fig 1b): 1.04E+02 and 1.02E+02 and 9.80E+01
[2]; Log[inhibitor] (M) -9.488
  parasite growth, replicate wells (Fig 1b): 9.60E+01 and 9.50E+01 and 9.40E+01
PfcProRS; Log[inhibitor] (M) -6.301
  dose-response signal (normalized), SI Fig 8: 1.92E-01 and 4.91E-02 and 9.09E-02 and 1.28E-01 and 2.12E-01 and 1.32E-01
PfcProRS; Log[inhibitor] (M) -6.602
  dose-response signal (normalized), SI Fig 8: 2.13E-01 and 1.64E-01 and 1.25E-01 and 4.31E-02 and 9.86E-02 and 8.65E-02
PfcProRS; Log[inhibitor] (M) -6.904
  dose-response signal (normalized), SI Fig 8: 1.14E-01 and 8.81E-02 and 8.34E-02 and 1.41E-01 and 2.01E-01 and 1.23E-01
PfcProRS; Log[inhibitor] (M) -7.205
  dose-response signal (normalized), SI Fig 8: 2.07E-01 and 2.31E-01 and 1.85E-01 and 3.09E-01 and 3.02E-01 and 1.82E-01
PfcProRS; Log[inhibitor] (M) -7.506
  dose-response signal (normalized), SI Fig 8: 4.98E-01 and 4.91E-01 and 5.79E-01 and 3.60E-01 and 6.32E-01 and 4.92E-01
PfcProRS; Log[inhibitor] (M) -7.796
  dose-response signal (normalized), SI Fig 8: 7.43E-01 and 8.09E-01 and 7.32E-01 and 8.58E-01 and 7.28E-01 and 7.94E-01
PfcProRS; Log[inhibitor] (M) -8.097
  dose-response signal (normalized), SI Fig 8: 9.39E-01 and 7.78E-01 and 8.55E-01 and 1.05E+00 and 7.40E-01 and 9.07E-01
PfcProRS; Log[inhibitor] (M) -8.407
  dose-response signal (normalized), SI Fig 8: 8.45E-01 and 1.01E+00 and 1.04E+00 and 1.10E+00 and 1.00E+00 and 9.65E-01
PfcProRS; Log[inhibitor] (M) -8.708
  dose-response signal (normalized), SI Fig 8: 1.03E+00 and 1.01E+00 and 9.69E-01 and 1.00E+00 and 9.25E-01 and 9.85E-01
PfcProRS; Log[inhibitor] (M) -9.018
  dose-response signal (normalized), SI Fig 8: 1.01E+00 and 9.85E-01 and 9.47E-01 and 1.02E+00 (2×) and 9.53E-01
PfcProRS; Log[inhibitor] (M) -9.319
  dose-response signal (normalized), SI Fig 8: 1.08E+00 and 9.09E-01 and 9.54E-01 and 9.77E-01 and 1.04E+00 and 9.33E-01
PfcProRS; Log[inhibitor] (M) -9.620
  dose-response signal (normalized), SI Fig 8: 9.48E-01 and 9.58E-01 and 1.04E+00 and 1.08E+00 and 1.01E+00 and 9.21E-01
